Test results taken from ChEMBL document CHEMBL5303766, “Data for DCP probe FHT-2344” (2022).

Key:
[1] = biological target: Cyclin-dependent kinase 2 (Homo sapiens) (UniProt P24941); assay: CDK2 SGC Tm panel (DSF); conditions: for ΔTm: Compound concentration 10.0 uM
[2] = biological target: Dual specificity protein kinase CLK1 (Homo sapiens) (UniProt P49759); assay: CLK1 SGC Tm panel (DSF); conditions: for ΔTm: Compound concentration 10.0 uM
[3] = biological target: T1, Dual specificity mitogen-activated protein kinase kinase 6 (Homo sapiens) (UniProt P52564); assay: MAP2K6 SGC Tm panel (DSF); conditions: for ΔTm: Compound concentration 10.0 uM
T1 sequence (whole entry): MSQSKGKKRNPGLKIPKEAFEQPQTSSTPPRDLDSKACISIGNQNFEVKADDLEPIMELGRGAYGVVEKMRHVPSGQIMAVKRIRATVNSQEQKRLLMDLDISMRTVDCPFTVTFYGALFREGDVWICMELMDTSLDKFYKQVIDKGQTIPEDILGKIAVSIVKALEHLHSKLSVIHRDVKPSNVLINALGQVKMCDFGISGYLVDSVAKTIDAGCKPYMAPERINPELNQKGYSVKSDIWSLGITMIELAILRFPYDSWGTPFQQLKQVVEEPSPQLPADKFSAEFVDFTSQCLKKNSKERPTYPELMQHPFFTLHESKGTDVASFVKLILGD

[4] = biological target: Serine/threonine-protein kinase 10 (Homo sapiens) (UniProt O94804); assay: STK10 SGC Tm panel (DSF); conditions: for ΔTm: Compound concentration 10.0 uM
[5] = biological target: Membrane-associated tyrosine- and threonine-specific cdc2-inhibitory kinase (Homo sapiens) (UniProt Q99640); assay: PKMYT1 SGC Tm panel (DSF); conditions: Compound concentration 10.0 uM
[6] = biological target: Serine/threonine-protein kinase 38-like (Homo sapiens) (UniProt Q9Y2H1); assay: STK38L SGC Tm panel (DSF); conditions: for ΔTm: Compound concentration 10.0 uM
[7] = biological target: Transcription initiation factor TFIID subunit 1 (Homo sapiens) (UniProt P21675); assay: TAF1 SGC Tm panel (DSF); conditions: for ΔTm: Compound concentration 10.0 uM
[8] = biological target: T2, Serine/threonine-protein kinase ULK3 (Homo sapiens) (UniProt Q6PHR2); assay: ULK3 SGC Tm panel (DSF); conditions: for ΔTm: Compound concentration 10.0 uM
T2 sequence (whole entry): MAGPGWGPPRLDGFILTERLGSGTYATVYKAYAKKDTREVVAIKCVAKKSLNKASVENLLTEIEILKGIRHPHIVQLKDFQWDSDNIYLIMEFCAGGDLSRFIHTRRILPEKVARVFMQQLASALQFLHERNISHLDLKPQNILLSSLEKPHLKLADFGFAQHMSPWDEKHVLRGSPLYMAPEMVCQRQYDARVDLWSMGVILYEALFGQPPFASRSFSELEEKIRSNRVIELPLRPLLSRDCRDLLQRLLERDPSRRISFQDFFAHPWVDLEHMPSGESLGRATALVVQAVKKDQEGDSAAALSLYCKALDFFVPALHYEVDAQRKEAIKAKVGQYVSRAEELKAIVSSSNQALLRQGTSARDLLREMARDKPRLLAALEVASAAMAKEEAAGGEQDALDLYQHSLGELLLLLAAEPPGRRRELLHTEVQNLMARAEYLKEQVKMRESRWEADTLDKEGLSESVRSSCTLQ

[9] = biological target: T3, Mitogen-activated protein kinase 15 (Homo sapiens) (UniProt Q8TD08); assay: MAPK15 SGC Tm panel (DSF); conditions: for ΔTm: Compound concentration 10.0 uM
T3 sequence (whole entry): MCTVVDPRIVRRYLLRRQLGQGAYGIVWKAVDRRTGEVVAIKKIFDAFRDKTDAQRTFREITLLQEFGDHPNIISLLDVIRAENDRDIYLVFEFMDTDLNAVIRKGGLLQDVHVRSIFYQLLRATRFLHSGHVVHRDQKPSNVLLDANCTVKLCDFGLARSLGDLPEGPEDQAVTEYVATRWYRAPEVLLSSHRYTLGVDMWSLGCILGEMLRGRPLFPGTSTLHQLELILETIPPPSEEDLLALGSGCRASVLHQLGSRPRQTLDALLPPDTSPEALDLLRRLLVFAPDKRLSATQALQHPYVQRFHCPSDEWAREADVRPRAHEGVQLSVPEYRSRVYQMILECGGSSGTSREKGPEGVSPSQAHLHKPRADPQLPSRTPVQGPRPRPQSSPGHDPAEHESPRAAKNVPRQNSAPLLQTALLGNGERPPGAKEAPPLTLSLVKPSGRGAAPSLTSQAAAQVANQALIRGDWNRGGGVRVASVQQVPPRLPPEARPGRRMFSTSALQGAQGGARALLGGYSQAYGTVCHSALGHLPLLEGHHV

[10] = biological target: T4, Ribosyldihydronicotinamide dehydrogenase [quinone] (Homo sapiens) (UniProt P16083); assay: NQO2 SGC Tm panel (DSF); conditions: for ΔTm: Compound concentration 10.0 uM
T4 sequence (whole entry): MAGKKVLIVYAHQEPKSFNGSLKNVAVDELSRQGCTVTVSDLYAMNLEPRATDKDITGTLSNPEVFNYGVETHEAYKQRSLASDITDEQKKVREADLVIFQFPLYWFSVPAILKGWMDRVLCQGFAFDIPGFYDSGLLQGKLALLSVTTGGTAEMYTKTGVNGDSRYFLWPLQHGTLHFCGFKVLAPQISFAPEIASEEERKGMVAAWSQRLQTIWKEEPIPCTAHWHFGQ

[11] = biological target: 5-hydroxytryptamine receptor 5A (Homo sapiens) (UniProt P47898); conditions: Compound concentration 10.0 uM
[12] = biological target: Alpha-1A adrenergic receptor (Homo sapiens) (UniProt P35348); conditions: Compound concentration 10.0 uM
[13] = biological target: Alpha-2A adrenergic receptor (Homo sapiens) (UniProt P08913); conditions: Compound concentration 10.0 uM
[14] = biological target: Muscarinic acetylcholine receptor M4 (Homo sapiens) (UniProt P08173); conditions: Compound concentration 10.0 uM
Rattus norvegicus = species: Rattus norvegicus; conditions: Compound concentration 10.0 uM

Transcription initiation factor TFIID subunit 1 (Homo sapiens), sequence (P21675 whole entry): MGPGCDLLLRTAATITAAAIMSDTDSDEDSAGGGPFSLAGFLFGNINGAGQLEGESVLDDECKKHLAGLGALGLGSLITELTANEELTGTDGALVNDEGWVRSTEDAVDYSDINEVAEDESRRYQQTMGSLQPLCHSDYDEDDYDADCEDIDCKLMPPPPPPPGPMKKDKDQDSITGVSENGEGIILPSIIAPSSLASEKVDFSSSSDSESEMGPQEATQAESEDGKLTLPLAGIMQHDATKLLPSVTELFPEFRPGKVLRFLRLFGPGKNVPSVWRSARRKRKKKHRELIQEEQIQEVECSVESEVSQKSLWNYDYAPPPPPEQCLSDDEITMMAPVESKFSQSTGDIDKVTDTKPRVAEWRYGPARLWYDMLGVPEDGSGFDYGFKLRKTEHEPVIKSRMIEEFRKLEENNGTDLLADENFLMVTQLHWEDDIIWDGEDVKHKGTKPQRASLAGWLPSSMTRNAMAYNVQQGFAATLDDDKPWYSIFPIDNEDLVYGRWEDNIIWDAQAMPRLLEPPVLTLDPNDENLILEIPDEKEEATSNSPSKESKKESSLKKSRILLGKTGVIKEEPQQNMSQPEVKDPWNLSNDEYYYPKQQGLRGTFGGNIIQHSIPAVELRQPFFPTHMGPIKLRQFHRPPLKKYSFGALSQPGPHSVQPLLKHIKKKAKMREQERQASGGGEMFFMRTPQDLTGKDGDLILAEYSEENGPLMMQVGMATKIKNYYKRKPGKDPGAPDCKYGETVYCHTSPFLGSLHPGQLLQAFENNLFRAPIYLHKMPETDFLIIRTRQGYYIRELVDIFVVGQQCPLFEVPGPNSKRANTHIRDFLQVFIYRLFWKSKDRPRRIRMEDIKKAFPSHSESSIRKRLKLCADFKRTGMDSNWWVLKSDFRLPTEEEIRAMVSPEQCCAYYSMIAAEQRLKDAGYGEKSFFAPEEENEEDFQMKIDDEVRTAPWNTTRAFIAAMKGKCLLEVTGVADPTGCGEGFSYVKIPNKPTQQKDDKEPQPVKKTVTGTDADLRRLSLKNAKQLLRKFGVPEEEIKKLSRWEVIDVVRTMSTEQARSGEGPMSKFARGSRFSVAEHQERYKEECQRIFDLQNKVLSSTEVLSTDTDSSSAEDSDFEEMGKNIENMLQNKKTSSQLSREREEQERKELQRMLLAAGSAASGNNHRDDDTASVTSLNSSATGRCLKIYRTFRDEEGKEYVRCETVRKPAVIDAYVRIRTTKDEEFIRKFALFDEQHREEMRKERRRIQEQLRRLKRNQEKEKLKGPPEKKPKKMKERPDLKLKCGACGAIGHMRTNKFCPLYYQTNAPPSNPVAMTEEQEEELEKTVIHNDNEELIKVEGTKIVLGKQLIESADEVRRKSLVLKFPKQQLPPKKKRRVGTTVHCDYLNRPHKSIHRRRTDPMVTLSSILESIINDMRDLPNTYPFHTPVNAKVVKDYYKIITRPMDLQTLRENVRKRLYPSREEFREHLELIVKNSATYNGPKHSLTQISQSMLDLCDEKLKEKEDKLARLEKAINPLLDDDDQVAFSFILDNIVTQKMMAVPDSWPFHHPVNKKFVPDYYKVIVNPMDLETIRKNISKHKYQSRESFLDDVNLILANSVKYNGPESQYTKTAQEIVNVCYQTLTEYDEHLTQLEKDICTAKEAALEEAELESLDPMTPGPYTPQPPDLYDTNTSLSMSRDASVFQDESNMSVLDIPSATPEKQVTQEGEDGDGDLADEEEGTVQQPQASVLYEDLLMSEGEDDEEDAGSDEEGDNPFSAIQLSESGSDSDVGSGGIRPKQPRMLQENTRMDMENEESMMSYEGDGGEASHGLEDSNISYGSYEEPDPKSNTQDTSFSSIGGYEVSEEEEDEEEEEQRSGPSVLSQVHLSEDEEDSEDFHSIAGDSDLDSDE
Dual specificity protein kinase CLK1 (Homo sapiens), sequence (P49759 whole entry, looked up): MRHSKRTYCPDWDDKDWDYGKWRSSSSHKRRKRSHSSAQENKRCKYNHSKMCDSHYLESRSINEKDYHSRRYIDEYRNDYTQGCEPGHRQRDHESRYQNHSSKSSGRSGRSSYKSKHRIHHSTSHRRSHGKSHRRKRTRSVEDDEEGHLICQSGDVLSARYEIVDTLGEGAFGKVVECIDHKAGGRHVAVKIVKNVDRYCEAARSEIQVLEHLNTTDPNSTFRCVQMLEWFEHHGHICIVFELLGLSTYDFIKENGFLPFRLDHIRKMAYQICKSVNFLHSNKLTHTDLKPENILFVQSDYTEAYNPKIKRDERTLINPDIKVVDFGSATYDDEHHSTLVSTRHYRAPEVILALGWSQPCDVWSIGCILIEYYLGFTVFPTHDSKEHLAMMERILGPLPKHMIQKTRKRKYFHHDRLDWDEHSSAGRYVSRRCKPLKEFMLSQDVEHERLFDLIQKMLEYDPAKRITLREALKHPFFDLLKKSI
Serine/threonine-protein kinase 38-like (Homo sapiens), sequence (Q9Y2H1 2-464 limits assumed): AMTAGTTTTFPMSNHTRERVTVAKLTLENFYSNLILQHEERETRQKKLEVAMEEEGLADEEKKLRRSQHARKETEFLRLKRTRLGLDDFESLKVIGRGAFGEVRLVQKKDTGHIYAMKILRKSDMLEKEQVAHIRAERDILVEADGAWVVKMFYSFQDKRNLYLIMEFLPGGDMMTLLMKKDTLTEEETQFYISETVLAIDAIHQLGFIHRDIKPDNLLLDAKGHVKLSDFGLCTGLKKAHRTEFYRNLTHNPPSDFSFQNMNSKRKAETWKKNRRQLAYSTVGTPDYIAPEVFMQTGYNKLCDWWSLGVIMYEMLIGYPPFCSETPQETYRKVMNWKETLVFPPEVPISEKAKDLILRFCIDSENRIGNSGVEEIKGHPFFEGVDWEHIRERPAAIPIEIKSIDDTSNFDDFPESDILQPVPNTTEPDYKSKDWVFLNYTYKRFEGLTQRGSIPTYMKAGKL
Serine/threonine-protein kinase 10 (Homo sapiens), sequence (O94804 whole entry, looked up): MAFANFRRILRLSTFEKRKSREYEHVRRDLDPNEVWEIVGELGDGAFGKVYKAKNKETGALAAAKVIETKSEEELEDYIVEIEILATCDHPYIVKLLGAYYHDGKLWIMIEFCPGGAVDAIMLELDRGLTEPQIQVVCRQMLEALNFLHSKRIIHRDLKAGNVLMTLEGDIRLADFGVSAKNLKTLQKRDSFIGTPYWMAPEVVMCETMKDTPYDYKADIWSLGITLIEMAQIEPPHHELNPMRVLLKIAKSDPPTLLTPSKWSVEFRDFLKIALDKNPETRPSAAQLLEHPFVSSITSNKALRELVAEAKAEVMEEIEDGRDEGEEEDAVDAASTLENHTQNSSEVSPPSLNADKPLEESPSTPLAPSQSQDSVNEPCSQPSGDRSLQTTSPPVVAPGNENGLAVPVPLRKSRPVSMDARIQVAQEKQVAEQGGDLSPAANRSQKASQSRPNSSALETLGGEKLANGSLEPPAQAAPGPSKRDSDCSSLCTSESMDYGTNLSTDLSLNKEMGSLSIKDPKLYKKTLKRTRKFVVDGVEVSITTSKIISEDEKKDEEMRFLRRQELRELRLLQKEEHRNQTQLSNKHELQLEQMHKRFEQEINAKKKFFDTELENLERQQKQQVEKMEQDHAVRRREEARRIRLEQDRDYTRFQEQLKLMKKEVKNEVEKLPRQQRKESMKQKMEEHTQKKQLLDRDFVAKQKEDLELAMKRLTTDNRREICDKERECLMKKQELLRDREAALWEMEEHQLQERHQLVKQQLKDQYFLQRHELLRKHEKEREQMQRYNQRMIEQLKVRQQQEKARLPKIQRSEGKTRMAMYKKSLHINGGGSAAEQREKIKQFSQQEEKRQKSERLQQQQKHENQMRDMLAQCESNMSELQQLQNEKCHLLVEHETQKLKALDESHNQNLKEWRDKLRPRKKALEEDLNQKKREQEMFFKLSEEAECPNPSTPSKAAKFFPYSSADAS
Membrane-associated tyrosine- and threonine-specific cdc2-inhibitory kinase (Homo sapiens), sequence (Q99640 whole entry): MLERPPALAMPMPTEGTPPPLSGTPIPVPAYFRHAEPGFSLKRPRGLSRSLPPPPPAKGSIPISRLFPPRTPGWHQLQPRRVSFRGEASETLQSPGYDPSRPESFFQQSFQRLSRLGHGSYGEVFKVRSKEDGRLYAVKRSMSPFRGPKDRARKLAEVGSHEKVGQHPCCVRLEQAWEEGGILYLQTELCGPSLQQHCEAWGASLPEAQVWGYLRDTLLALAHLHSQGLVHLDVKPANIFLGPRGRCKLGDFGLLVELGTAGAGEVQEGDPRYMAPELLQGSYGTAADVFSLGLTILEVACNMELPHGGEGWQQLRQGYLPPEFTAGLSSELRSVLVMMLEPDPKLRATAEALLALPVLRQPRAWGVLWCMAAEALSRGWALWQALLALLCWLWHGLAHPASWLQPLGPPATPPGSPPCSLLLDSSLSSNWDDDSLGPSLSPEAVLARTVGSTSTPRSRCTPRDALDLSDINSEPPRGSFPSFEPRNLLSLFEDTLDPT
Muscarinic acetylcholine receptor M4 (Homo sapiens), sequence (P08173 whole entry): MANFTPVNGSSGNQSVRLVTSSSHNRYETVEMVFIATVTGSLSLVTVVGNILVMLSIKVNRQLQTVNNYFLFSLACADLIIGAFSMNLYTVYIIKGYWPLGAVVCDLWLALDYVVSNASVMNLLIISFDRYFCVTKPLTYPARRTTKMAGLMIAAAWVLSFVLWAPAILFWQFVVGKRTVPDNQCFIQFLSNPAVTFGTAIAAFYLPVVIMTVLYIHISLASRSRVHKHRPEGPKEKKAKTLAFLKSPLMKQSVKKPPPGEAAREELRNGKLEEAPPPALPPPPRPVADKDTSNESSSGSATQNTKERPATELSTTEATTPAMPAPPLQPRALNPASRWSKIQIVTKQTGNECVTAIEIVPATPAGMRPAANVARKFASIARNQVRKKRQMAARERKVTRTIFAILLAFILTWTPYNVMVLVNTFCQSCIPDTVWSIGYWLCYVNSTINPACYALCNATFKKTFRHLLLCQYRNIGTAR

Row | Compound | delta Tm Staurosporine positive control [1] | ΔTm [1] | delta Tm Staurosporine positive control [2] | ΔTm [2] | delta Tm Staurosporine positive control [3] | ΔTm [3] | delta Tm Staurosporine positive control [4] | ΔTm [4] | ΔTm [5] | delta Tm Staurosporine positive control [6] | ΔTm [6] | delta Tm Staurosporine positive control [7] | ΔTm [7] | delta Tm Staurosporine positive control [8] | ΔTm [8] | delta Tm Staurosporine positive control [9] | ΔTm [9] | delta Tm Staurosporine positive control [10] | ΔTm [10] | inhibition [11] [%] | further results
1 | C[C@H](NC(=O)c1cn(C2(C#N)CC2)cn1)C(=O)Nc1nc(-c2cccc(-c3ccn(C)n3)c2)cs1 | 15.5 | 0.352 | 10.9 | 0.522 | 12.1 | 1.65 | 22.7 | 0.554 | -0.216 | 10.8 | 0.237 | 0.177 | -0.179 | 18.2 | 0.155 | 15 | 1.05 | -2.91 | -0.586 | 13.9 | inhibition [12]: 15.2%; inhibition [13]: 10.5%; inhibition [14]: 7.09%; inhibition (Rattus norvegicus): 64.6%
2 | COC[C@H](NC(=O)c1ccn(S(C)(=O)=O)c1)C(=O)Nc1nc(-c2cccc(-c3ccn(C)n3)c2)cs1 | 15.5 | 0.601 | 10.9 | 0.489 | 12.1 | 1.51 | 22.7 | 0.244 | -0.638 | 10.8 | 0.451 | 0.177 | 0.0215 | 18.2 | 0.301 | 15 | 0.94 | -2.91 | -0.772 | 11.2 | inhibition [12]: 12.3%; inhibition [13]: 5.84%; inhibition [14]: 4.13%; inhibition (Rattus norvegicus): 47.5%
